By MIC is commonly meant the lowest concentration that inhibits growth of the organism. Read a high MIC as a less susceptible organism.

Where a name gives a salt, the structure may show the parent alone. Where only a bound is given, the exact number is not on record here.

In one assay the test system is P. mirabilis 889. Nature of the assay: MIC against P. mirabilis 889. The format is cell-based. As to conditions: P. mirabilis 889.
In the case of `CCN1CCN(C(=O)NC(C(=O)NC2(NC=O)C(=O)N3C(C(=O)[O-])C(C)(C)SC32)c2ccc(O)c(O)c2)C(=O)C1=O.[Na+]` (stereo not drawn) [Example 33, 6β-[2-[(4-Ethyl-2,3-dioxopiperazin-1-yl)carbonylamino]-2-(3,4-dihydroxyphenyl)acetamido]6α-formamidopenicillanic acid, sodium salt], the “MIC against P. mirabilis 889” value was 0.2 µg/mL.

Staying with this assay, now noted: Proteus mirabilis, 889.
In turn, `CNC(=O)C[C@@H](N)C(=O)N[C@@H](C(=O)N[C@]1(NC=O)C(=O)N2[C@@H](C(=O)O)C(C)(C)S[C@@H]21)c1ccc(O)cc1` [Example 50, 6β-[D-2-[D-2-amino-3-(N-methylcarbamoyl)propionamido]-2-(4-hydroxyphenyl)acetamido]-6α-formamidopenicillanic acid, sodium salt] yielded an MIC of 1 µg/mL.

Still in this assay, the particulars now being: Proteus mirabilis, 889, P. mirabilis 889.
Molecule `CCN1CCN(C(=O)N[C@H](C(=O)N[C@]2(NC=O)C(=O)N3[C@@H](C(=O)O)C(C)(C)S[C@@H]32)c2cccs2)C(=O)C1=O` [Example 27, 6β-[L-2-[(4-Ethyl-2,3-dioxopiperazin-1-yl)carbonylamino]-2-(thien-2-yl)acetamido]-6α-formamidopenicillanic acid sodium salt] gave an MIC of 0.5 µg/mL.

Regarding `CCN1CCN(C(=O)N[C@@H](C(=O)N[C@]2(NC=O)C(=O)N3[C@@H](C(=O)O)C(C)(C)S[C@@H]32)[C@H](C)OCc2ccccc2)C(=O)C1=O` [Example 30, 6β-[(2R,3S)-3-Benzyloxy-2-[(4-ethyl-2,3-dioxopiperazin-1-yl)carbonylamino]butyramido]-6α-formamidopenicillanic acid, sodium salt], inhibition of growth (MIC) required 100 µg/mL.

Regarding `CC1(C)S[C@H]2N(C(=O)[C@@]2(NC=O)NC(=O)[C@H](NC(=O)Nc2cnc(Nc3ccccc3)nc2O)c2ccc(O)cc2)[C@H]1C(=O)O` [Example 32, 6α-Formamido-6β-[D-2-(4-hydroxyphenyl)-2-[3-[4-hydroxy-2-(phenylamino)pyrimidin-5-yl]ureido]acetamido]penicillanic acid, sodium salt], the MIC stood at 5 µg/mL.

In turn, `CC(=O)OCC1=C(C(=O)O)N2C(=O)[C@@](NC=O)(NC(=O)[C@H](N)c3ccccc3)[C@H]2SC1` [Example 35, 7β-(D-2-Amino-2-phenylacetamido)-7α-formamidocephalosporanic acid, trifluoroacetic acid salt] came in with an MIC of over 100 µg/mL.

`CCN1CCN(C(=O)N[C@@H](C(=O)N[C@]2(NC=O)C(=O)N3C(C(=O)O)=C(COC(C)=O)CS[C@@H]32)c2ccccc2)C(=O)C1=O` [Example 36, 7β-[D-2-[(4-Ethyl-2,3-dioxopiperazin-1-yl)carbonylamino]-2-phenylacetamido]-7α-Formamidocephalosporanic acid, sodium salt]: the MIC turned out to be 0.2 µg/mL.

As for `CC(=O)OCC1=C(C(=O)O)N2C(=O)[C@@](NC=O)(NC(=O)[C@H](NC(=O)N3CCN(S(C)(=O)=O)C3=O)c3ccccc3)[C@H]2SC1` [Example 38, 7α-Formamido-7β-[D-2-[[3-(methylsulphonyl)-2-oxoimidazolidin-1-yl]carbonylamino]-2-phenylacetamido]cephalosporanic acid, sodium salt], the MIC is 1 µg/mL.

For `CCN1CCN(C(=O)N[C@@H](C(=O)N[C@]2(NC=O)C(=O)N3C(C(=O)O)=C(COC(C)=O)CS[C@@H]32)c2ccc(O)cc2)C(=O)C1=O` [Example 39, 7β-[D-2-[(4-Ethyl-2,3-dioxopiperazin-1-yl)carbonylamino]-2-(4-hydroxyphenyl)acetamido]-7α-formamidocephalosporanic acid, sodium salt], 0.2 µg/mL was the least that counted as inhibitory (MIC).

`CCN1CCN(C(=O)N[C@H](C(=O)N[C@]2(NC=O)C(=O)N3C(C(=O)O)=C(COC(C)=O)CS[C@@H]32)c2ccc(O)cc2)C(=O)C1=O` [Example 40, 7β-[L-2-[(4-Ethyl-2,3-dioxopiperazin-1-yl)carbonylamino]-2-(4-hydroxyphenyl)acetamido]-7α-formamidocephalosporanic acid, sodium salt] came in with a minimal inhibitory concentration (MIC) of 100 µg/mL.

Molecule `CCN1CCN(C(=O)N[C@@H](C(=O)N[C@]2(NC=O)C(=O)N3C(C(=O)O)=C(COC(C)=O)CS[C@@H]32)c2ccc(OC(C)=O)c(OC(C)=O)c2)C(=O)C1=O` [Example 41, 7β-[D-2-[(4-Ethyl-2,3-dioxopiperazin-1-yl)carbonylamino]-2-(3,4-diacetoxyphenyl)acetamido]-7α-formamidocephalosporanic acid, sodium salt] registered an MIC of 0.1 µg/mL.

For the molecule `CC(=O)OCC1=C(C(=O)O)N2C(=O)[C@@](NC=O)(NC(=O)Cc3cccs3)[C@H]2SC1` [Example 42, 7α-Formamido-7β-(thien-2-ylacetamido)cephalosporanic acid, sodium salt], the MIC came out at 10 µg/mL.

In the case of `CC(=O)OCC1=C(C(=O)O)N2C(=O)[C@@](NC=O)(NC(=O)C(C(=O)O)c3ccsc3)[C@H]2SC1` (stereo partly drawn) [Example 43, 7β-[2-Carboxy-2-(thien-3-yl)acetamido]-7α-formamido cephalosporanic acid, disodium salt], the minimal inhibitory concentration (MIC) is 100 µg/mL.

On to `CCN1CCN(C(=O)N[C@@H](C(=O)N[C@]2(NC=O)C(=O)N3C(C(=O)O)=C(COC(C)=O)CS[C@@H]32)c2cccs2)C(=O)C1=O` [Example 44, 7β-[D-2-[(4-Ethyl-2,3-dioxopiperazin-1-yl)carbonylamino]-2-(thien-2-yl)acetamido]-7α-formamido-cephalosporanic acid, sodium salt], for which the MIC came to 0.1 µg/mL.

The molecule `CCN1CCN(C(=O)N[C@H](C(=O)N[C@]2(NC=O)C(=O)N3C(C(=O)O)=C(COC(C)=O)CS[C@@H]32)c2cccs2)C(=O)C1=O` [Example 45, 7β-[L-2-[(4-Ethyl-2,3-dioxopiperazin-1-yl)carbonylamino]-2-(thien-2-yl)acetamido]-7α-formamidocephalosporanic acid, sodium salt] gave an MIC of 0.25 µg/mL.

In turn, `CC(=O)OCC1=C(C(=O)O)N2C(=O)[C@@](NC=O)(NC(=O)Cc3csc(N)n3)[C@H]2SC1` [Example 46, 7β-[2-(2-Aminothiazol-4-yl)acetamido]-7α-formamidocephalosporanic acid, trifluoroacetic acid salt] had an MIC of 100 µg/mL.

In turn, `CC1(C)S[C@H]2N(C(=O)[C@@]2(NC=O)NC(=O)[C@H](NC(=O)Nc2cc3ccccc3oc2=O)c2ccc(O)cc2)[C@H]1C(=O)O` [Example 47, 6β-[D-2-[3-(Coumarin-3-yl)ureido]-2-(4-hydroxyphenyl)acetamido]-6α-formamidopenicillanic acid, sodium salt] displayed an MIC of 100 µg/mL.

Molecule `CC1(C)S[C@H]2N(C(=O)[C@@]2(NC=O)NC(=O)[C@H](NC(=O)Nc2coc3ccccc3c2=O)c2ccc(O)cc2)[C@H]1C(=O)O` [Example 48, 6β-[D-2-[3-(4-Oxo-4H-1-benzopyran-3-yl)ureido]-2-(4-hydroxyphenyl)acetamido]-6α-formamidopenicillanic acid, sodium salt] had an MIC of 50 µg/mL.

`Cc1ccc2c(O)c(C(=O)N[C@@H](C(=O)N[C@]3(NC=O)C(=O)N4[C@@H](C(=O)O)C(C)(C)S[C@@H]43)c3ccc(O)cc3)cnc2n1` [Example 49, 6α-Formamido-6β-[D-2-[(4-hydroxy-7-methyl-1,8-naphthyridin-3-yl)carbonylamino]-2-(4-hydroxyphenyl)acetamido]penicillanic acid, sodium salt] yielded an MIC of 5 µg/mL.

In the case of `CC(=O)OCC1=C(C(=O)O)N2C(=O)[C@@](NC=O)(NC(=O)CSCC#N)[C@H]2SC1` [Example 51, 7β-[2-(Cyanomethylthio)acetamido]-7α-formamidocephalosporanic acid, sodium salt], the MIC came to 25 µg/mL.

For the origin of these results see US4539149A, “β-Lactam antibacterial agents” (Beecham Group p.l.c., priority 1981, dated 1985).
